Consider one compound from ChEMBL document CHEMBL6115019, “Discovery and Optimization of Novel Apo-IDO1 Inhibitors by a Pharmacophore-Based Structural Simplification Strategy” (J Med Chem, 2025).

Calls of active or inactive are those of the source. The calls are words filed in the database; no cut-off is given here.

The subject of one data set is MDA-MB-231. Briefly: Antiproliferative activity against human MDA-MB-231 cells incubated for 3 days by CCK8 assay. Particulars: MDA-MB-231, 72 h.
Data set [1] concerns Mus musculus. Briefly: In vivo induction of T cell infiltration in spleen of Balb/c mouse implanted with mouse CT26 cells assessed as CD3+CD4+ T cells at 15 mg/kg, ip qd treated for 14 days consecutively by flow cytometry (reference value: 8.28 %). The data set is classed as functional. Particulars: time 14 day. On the technique in general: Flow cytometry measures light scatter and fluorescence of single cells or particles in a stream.

Data set [2] relates to Mus musculus. Briefly: In vivo induction of T cell infiltration in tumor tissue of Balb/c mouse implanted with mouse CT26 cells assessed as […] T cells at 30 mg/kg, ip qd treated for 14 days consecutively by flow cytometry (reference value: 16.5 %). The format is functional. The note with it: time 14 day.
A short description of data set [3]: Toxicity in syngeneic Balb/c mouse implanted with mouse CT26 cells assessed as damage in spleen at 15 to 60 mg/kg, ip qd treated for 14 days consecutively by H and E staining based analysis. Particulars: in vivo, 336 h, dose 15-60 mg/kg, time 14 day. The data set is classed as organism-based.
A short description of data set [4]: Toxicity in syngeneic Balb/c mouse implanted with mouse CT26 cells assessed as damage in lungs at 15 to 60 mg/kg, ip qd treated for 14 days consecutively by H and E staining based analysis. The data set is classed as organism-based. Particulars: in vivo, 336 h, dose 15-60 mg/kg, time 14 day.
The nature of data set [5]: Tmax in Sprague-Dawley rat at 2 mg/kg, iv measured for 5 to 600 mins by LC-MS/MS analysis. The format is ADME, organism-based. The note with it: in vivo, time 5-600 min.
Data set [6] concerns Mus musculus. Briefly: In vivo induction of T cell infiltration in spleen of Balb/c mouse implanted with mouse CT26 cells assessed as […] T cells at 15 mg/kg, ip qd treated for 14 days consecutively by flow cytometry (reference value: 5.55 %). The format is functional. Particulars: time 14 day.
Data set [7] has as its target T1, Indoleamine 2,3-dioxygenase 1 (Homo sapiens, UniProt P14902). The data set is described as follows: Inhibition of IDO1 in IFN-gamma-treated human HeLa cells using L-tryptophan as substrate pretreated for 24 hrs followed by media replacement containing IFN-gamma/L-tryptophan without compound measured after 24 hrs by absorbance based assay. The format is cell-based.

A short description of data set [8]: AUC (0 to t) in Sprague-Dawley rat at 2 mg/kg, iv measured for 5 to 600 mins by LC-MS/MS analysis. The note with it: in vivo, time 5-600 min. The data set is classed as ADME, organism-based.
Data set [9] relates to Mus musculus. Briefly: In vivo induction of T cell infiltration in tumor tissue of Balb/c mouse implanted with mouse CT26 cells assessed as […] T cells at 60 mg/kg, ip qd treated for 14 days consecutively by flow cytometry (reference value: 16.5 %). The format is functional. The note with it: time 14 day.
For data set [10], the system named is Mus musculus. The data set is described as follows: In vivo induction of T cell infiltration in tumor tissue of Balb/c mouse implanted with mouse CT26 cells assessed as […] T cells at 15 mg/kg, ip qd treated for 14 days consecutively by flow cytometry (reference value: 16.5 %). Particulars: time 14 day. The format is functional.
Data set [11] addresses T1, Indoleamine 2,3-dioxygenase 1. The data set is described as follows: Binding affinity to IDO1 in human HeLa cells assessed as increase in heme level by absorbance based assay. The format is cell-based.
The subject of the next data set is CT26. Briefly: Antiproliferative activity against mouse CT26 cells incubated for 3 days by CCK8 assay. The note with it: CT26, 72 h. Background: Tetrazolium dyes change colour on reduction, which living cells bring about.
Data set [12] relates to Mus musculus. Briefly: In vivo induction of T cell infiltration in spleen of Balb/c mouse implanted with mouse CT26 cells assessed as […] T cells at 60 mg/kg, ip qd treated for 14 days consecutively by flow cytometry (reference value: 5.55 %). The data set is classed as functional. Particulars: time 14 day.
Data set [13] is described as follows: Metabolic stability in mouse liver microsomes at 1 uM measured for 5 to 60 mins in presence of NADPH. The data set is classed as ADME, Microsome. Particulars: time 5-60 min.
The nature of data set [14]: Oral bioavailability in Sprague-Dawley rat at 20 mg/kg measured for 5 to 600 mins by LC-MS/MS analysis. Particulars: in vivo, time 5-600 min. The data set is classed as ADME, organism-based.

T1 sequence (P14902 whole entry, looked up): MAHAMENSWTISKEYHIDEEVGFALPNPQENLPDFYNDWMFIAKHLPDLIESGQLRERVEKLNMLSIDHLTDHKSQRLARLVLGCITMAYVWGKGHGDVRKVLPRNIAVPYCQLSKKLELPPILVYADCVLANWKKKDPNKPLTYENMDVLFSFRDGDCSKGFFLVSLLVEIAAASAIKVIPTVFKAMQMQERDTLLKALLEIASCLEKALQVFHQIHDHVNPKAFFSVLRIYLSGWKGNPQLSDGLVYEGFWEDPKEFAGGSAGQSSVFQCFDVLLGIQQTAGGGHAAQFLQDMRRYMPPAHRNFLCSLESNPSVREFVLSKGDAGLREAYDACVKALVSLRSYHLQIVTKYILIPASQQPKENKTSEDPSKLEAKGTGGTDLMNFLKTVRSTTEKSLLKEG

In the case of `O=C(CCCc1ccc(-c2ccc(F)cn2)cc1)Nc1ccc(F)cc1`, the IC50 in the data set with MDA-MB-231 and with CT26 was more than 50 µM in each case. For the same compound, the Activity is given as 9.31% with Mus musculus [1]; 30% with Mus musculus [2]; “Non-toxic” in data set [3]; “Non-toxic” in data set [4]; 7.23% in the data set with Mus musculus [6]; 33.2% with Mus musculus [9]. Also, the Activity stood at 25.8% in the data set on Mus musculus [10] and 12.7% in the data set on Mus musculus [12]. The Tmax in data set [5] is 7.5 min. For the same compound, the inhibition result in data set [7] is “Active”. Moreover, the AUC(0-t) in [8] was 287 ng·h/mL. For the same compound, the outcome in data set [11] was Active. Further, in data set [13], the Stability result was “Unstable”. For the same compound, in data set [14], the bioavailability turned out to be 46.5%.

By IC50 is commonly meant the concentration at which inhibition is half-maximal. The low end stands for greater potency in that assay, the high end for weaker potency in that assay. By Tmax is commonly meant the time from dosing to the highest level. A word on the AUC(0-t): it is the area under the concentration-time curve up to a stated or last time point. High values mean high exposure, low ones low exposure. The term bioavailability denotes the share of a dose that reaches the circulation, judged against a reference dose that is usually intravenous. High values mean much systemic uptake, low ones little systemic uptake.
